# Tests used:
# [1] = molecular target: Histone deacetylase 1 (Homo sapiens, UniProt Q13547); assay: Inhibition of human recombinant HDAC1 using Fluor de Lys as substrate after 2 hrs by fluorescence method
# [2] = test system: HuT78; assay: Pro-apoptotic activity in human HUT78 cells after 18 hrs by caspase-Glo 3/7 assay; format: functional, cell-based; conditions: HuT78, 18 h
# [3] = molecular target: T1, Histone deacetylase 8 (Homo sapiens, UniProt Q9BY41); assay: Inhibition of human recombinant HDAC8 using fluorogenic HDAC substrate after 15 mins by fluorimetrc method
# T1 sequence (Q9BY41 whole entry): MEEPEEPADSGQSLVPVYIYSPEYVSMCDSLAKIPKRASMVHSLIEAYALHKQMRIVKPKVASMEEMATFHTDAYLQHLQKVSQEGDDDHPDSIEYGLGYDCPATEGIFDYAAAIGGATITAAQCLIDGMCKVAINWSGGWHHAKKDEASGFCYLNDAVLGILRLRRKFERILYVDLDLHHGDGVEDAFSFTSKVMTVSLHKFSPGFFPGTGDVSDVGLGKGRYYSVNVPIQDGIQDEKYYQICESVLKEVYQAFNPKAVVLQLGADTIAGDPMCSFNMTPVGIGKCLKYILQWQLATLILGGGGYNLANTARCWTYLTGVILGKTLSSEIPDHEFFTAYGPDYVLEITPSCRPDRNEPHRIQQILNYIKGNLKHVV
# [4] = molecular target: T2, NAD-dependent protein deacetylase sirtuin-3, mitochondrial (Homo sapiens, UniProt Q9NTG7); assay: Inhibition of human recombinant SIRT3 using fluoro-lysine sirtuin 2 deacetylase substrate after 45 mins by fluorimetrc method
# T2 sequence (Q9NTG7 whole entry): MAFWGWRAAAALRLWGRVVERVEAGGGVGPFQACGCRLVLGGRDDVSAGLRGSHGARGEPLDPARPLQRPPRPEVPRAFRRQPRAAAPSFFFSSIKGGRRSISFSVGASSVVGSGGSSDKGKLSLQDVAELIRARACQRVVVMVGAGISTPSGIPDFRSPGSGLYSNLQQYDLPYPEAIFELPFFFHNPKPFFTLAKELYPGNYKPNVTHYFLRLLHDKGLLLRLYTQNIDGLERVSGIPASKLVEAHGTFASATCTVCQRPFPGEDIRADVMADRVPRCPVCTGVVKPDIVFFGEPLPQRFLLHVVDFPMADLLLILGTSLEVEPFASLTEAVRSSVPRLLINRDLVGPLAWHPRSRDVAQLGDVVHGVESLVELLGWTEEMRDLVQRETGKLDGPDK
# Histone deacetylase 1, sequence (Q13547 whole entry): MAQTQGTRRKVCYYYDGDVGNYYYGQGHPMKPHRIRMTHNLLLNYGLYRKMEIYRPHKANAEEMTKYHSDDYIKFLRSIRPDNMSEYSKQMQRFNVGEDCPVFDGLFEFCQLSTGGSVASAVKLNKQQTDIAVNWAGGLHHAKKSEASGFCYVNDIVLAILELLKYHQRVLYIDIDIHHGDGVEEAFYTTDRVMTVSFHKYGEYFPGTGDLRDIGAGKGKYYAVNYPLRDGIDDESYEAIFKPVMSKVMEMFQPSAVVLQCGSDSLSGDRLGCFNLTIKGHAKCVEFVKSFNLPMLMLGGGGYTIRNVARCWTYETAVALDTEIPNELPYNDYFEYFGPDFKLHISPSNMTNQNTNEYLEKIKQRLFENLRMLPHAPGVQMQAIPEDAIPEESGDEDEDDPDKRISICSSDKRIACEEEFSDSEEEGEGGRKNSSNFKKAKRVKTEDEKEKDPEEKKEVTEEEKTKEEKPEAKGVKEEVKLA
Structure (SMILES),Ki [1] [nM],EC50 [2] [nM],Ki [3] [nM],Ki [4] [nM]
COc1ccc(Nc2c(NCCCCCC(=O)NO)c(=O)c2=O)cc1,0.075,4.9,100,> 10000
CC(C)(CCCCC(=O)NO)Nc1c(Nc2ccc(C(F)(F)F)cc2)c(=O)c1=O,0.27,7.3,110,> 10000
CC(Nc1c(NCCCCCC(=O)NO)c(=O)c1=O)C12CC3CC(CC(C3)C1)C2 (configuration not stated),3.8,98,320,> 10000

# Source: ChEMBL document CHEMBL4229543, “Squaramides as novel class I and IIB histone deacetylase inhibitors for topical treatment of cutaneous t-cell lymphoma” (Bioorg Med Chem Lett, 2018)
